Measurements taken from patent US20230146675A1, “PYRIMIDO[5,4-d]PYRIMIDINE DERIVATIVES AS ENT INHIBITORS FOR THE TREATMENT OF CANCERS, AND COMBINATION THEREOF WITH ADENOSINE RECEPTOR ANTAGONISTS” (ITEOS BELGIUM SA, priority 2020, published 2023).
Read-outs that look alike come from different tables or passages of the source.

Assays:
Assay type in all cases: biochemical
[1] = biological target: T1, Human phosphodiesterase-1B (Homo sapiens, UniProt Q01064); experiment: PDE1B (h) assay
T1 construct: host or cells: Sf9 cells
Protocol: Method. • Human phosphodiesterase-1B quantified by measuring the formation of 5′GMP from cGMP using a human recombinant enzyme expressed in Sf9 cells
(§1) The test compound (compound 72), reference compound or water (control) were added to a buffer containing 40 mM Tris/HCl (pH 7.4), 8 mM MgCl2 0.21% BSA, 0.5 μg/ml calmoduline and 0.5 mM CaCl2), 1.125 μM cGMP and 0.027 μCi [3H]cGMP. Thereafter, the reaction was initiated by addition of the enzyme (about 0.2 U) and the mixture was incubated for 20 min at 22° C. For basal control measurements, the enzyme was omitted from the reaction mixture. Following incubation SPA beads were added. After 30 min at 22° C. under shaking, the amount of [3H]5′GMP was quantified with a scintillation counter (MicroBeta, Perkin Elmer). The results were expressed as a percent inhibition of the control enzyme activity. The standard inhibitory reference compound was Nitrendipine, which was tested in each experiment at several concentrations to obtain an inhibition curve from which its IC50 value was calculated. • Human phosphodiesterase-5 quantified by measuring the formation of 5′GMP from cGMP using an enzyme isolated from human platelets at Eurofins-Cerep.

[2] = biological target: T2, Human phosphodiesterase-7A1 (Homo sapiens, UniProt Q13946); experiment: PDE7A1 (h) assay
T2 construct: host or cells: Sf9 cells
T2 sequence (Q13946 whole entry): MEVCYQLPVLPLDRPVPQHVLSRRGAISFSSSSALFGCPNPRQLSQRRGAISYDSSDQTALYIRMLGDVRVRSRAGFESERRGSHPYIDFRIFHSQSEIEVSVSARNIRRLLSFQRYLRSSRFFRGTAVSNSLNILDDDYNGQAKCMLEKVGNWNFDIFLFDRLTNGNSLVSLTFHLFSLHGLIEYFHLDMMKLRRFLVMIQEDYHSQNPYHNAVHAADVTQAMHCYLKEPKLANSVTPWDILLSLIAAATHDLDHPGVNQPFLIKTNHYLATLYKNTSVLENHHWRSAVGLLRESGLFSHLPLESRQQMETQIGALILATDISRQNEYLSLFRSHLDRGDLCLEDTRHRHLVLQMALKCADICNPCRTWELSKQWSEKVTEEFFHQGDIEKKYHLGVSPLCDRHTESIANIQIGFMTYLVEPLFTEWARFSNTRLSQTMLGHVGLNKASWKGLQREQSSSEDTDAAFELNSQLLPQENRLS
Protocol: The test compound (compound 72), reference compound or water (control) were added to a buffer containing 40 mM Tris/HCl (pH 7.4), 8 mM MgCl2 and 1.7 mM EGTA/NaOH, 1.8 μM cAMP and 1 μCi [3H]cAMP. Thereafter, the reaction was initiated by addition of the enzyme (about 2 ng) and the mixture was incubated for 15 min at 22° C. For basal control measurements, the enzyme was omitted from the reaction mixture. Following incubation SPA beads were added. After 30 min at 22° C. under shaking, the amount of [3H]5′AMP was quantified with a scintillation counter (MicroBeta, Perkin Elmer). The results were expressed as a percent inhibition of the control enzyme activity. The standard inhibitory reference compound was EHNA, which was tested in each experiment at several concentrations to obtain an inhibition curve from which its IC50 value was calculated. • Human phosphodiesterase-7A1 quantified by measuring the formation of 5′AMP from cAMP using a human recombinant enzyme expressed in Sf9 cells
(§2) The test compound (compound 72), reference compound or water (control) were added to a buffer containing 40 mM Tris/HCl (pH 7.4) and 8 mM MgCl2, 63 nM cAMP and 0.035 μCi [3H]cAMP. […] After 30 min at 22° C. under shaking, the amount of [3H]5′AMP was quantified with a scintillation counter (MicroBeta, Perkin Elmer). The results were expressed as a percent inhibition of the control enzyme activity. […]

[3] = biological target: T3, Human phosphodiesterase-5 (Homo sapiens, UniProt O76074); experiment: PDE5 (h) (non-selective) assay
T3 construct: using an enzyme isolated from human platelets at Eurofins-Cerep; tissue Eurofins-Cerep; host or cells: human platelets
Protocol: as §1
The test compound (compound 72), reference compound or water (control) were added to a buffer containing 40 mM Tris/HCl (pH 7.8), 3 mM MgCl2, 1.4 mM DTT, 0.21% BSA, 200 mM NH4Cl, 1 μM cGMP and 0.1 μCi [3H]cGMP. […] After 20 min at 22° C. under shaking, the amount of [3H]5′GMP was quantified with a scintillation counter (MicroBeta, Perkin Elmer). […]

[4] = biological target: T4, Human phosphodiesterase-4B1 (Homo sapiens, UniProt Q07343); experiment: PDE4B1 (h) assay
T4 construct: host or cells: Sf9 cells
T4 sequence (Q07343 whole entry): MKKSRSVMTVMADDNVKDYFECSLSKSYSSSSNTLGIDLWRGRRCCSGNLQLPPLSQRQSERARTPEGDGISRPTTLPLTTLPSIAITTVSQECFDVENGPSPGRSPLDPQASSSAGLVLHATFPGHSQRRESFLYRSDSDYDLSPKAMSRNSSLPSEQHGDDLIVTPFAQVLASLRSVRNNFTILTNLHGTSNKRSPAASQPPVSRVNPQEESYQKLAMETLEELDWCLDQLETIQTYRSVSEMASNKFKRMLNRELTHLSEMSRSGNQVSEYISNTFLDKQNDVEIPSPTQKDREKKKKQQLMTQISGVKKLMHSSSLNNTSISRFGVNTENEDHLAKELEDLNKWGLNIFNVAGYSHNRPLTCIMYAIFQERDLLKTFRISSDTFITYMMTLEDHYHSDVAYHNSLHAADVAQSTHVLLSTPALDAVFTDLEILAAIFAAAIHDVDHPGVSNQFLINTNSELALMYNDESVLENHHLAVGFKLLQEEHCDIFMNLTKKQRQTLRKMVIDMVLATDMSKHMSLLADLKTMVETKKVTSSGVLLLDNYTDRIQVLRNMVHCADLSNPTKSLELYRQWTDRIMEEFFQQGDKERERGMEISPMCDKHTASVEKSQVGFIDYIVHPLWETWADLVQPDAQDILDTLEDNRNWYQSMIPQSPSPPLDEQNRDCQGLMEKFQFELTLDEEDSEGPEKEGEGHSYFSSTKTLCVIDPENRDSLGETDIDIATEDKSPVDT
Protocol: The test compound (compound 72), reference compound or water (control) were added to a buffer containing 40 mM Tris/HCl (pH 7.4) and 8 mM MgCl2, 450 nM cAMP and 0.25 μCi [3H]cAMP. Thereafter, the reaction was initiated by addition of the enzyme (about 10 U) and the mixture was incubated for 20 min at 22° C. For basal control measurements, the enzyme was omitted from the reaction mixture. Following incubation SPA beads were added. After 30 min at 22° C. under shaking, the amount of [3H]5′AMP was quantified with a scintillation counter (MicroBeta, Perkin Elmer). The results were expressed as a percent inhibition of the control enzyme activity. The standard inhibitory reference compound was Ro 20-1724, which was tested in each experiment at several concentrations to obtain an inhibition curve from which its IC50 value was calculated. • Human phosphodiesterase-4B1 quantified by measuring the formation of 5′AMP from cAMP using a human recombinant enzyme expressed in Sf9 cells.
as §2, with “7.4),” for “7.4) and”, “MgCl2 and 1.7 mM EGTA/NaOH, 450” for “MgCl2, 63”, “0.25” for “0.035”

- IC50 [1]: > 10 µM
- IC50 [2]: > 10 µM
- IC50 ([3]; read-out: PDE5 (h) (non-selective) IC50): 1000 to 10000 nM
- IC50 ([3]; read-out: PDE5 IC50): 1080 nM
- IC50 [4]: 1 to 10 µM
SMILES: COCCN(CCOC)c1nc(N2CCN(C)C(=O)C2)c2nc(N(CCOC)CCOC)nc(N3CCC(OC)CC3)c2n1 [Compound 72, 4-(2,6-bis(bis(2-methoxyethyl)amino)-8-(4-methoxypiperidin-1-yl)pyrimido[5,4-d]pyrimidin-4-yl)-1-methylpiperazin-2-one]
